Source: patent US7045324B2, “Tocopherol associated protein and uses thereof” (Research Development Foundation, priority 2002, dated 2006)

Tests used:
[1] = tested on: MDA-MB-435 human breast cancer cells; assay: Apoptosis (DAPI staining) of TAP siRNA transfected MDA-MB-435 cells treated with tocopherol-based compounds; type: cell-based; settings: TAP siRNA for 6 days, then compound for 2 days (α-TEA 20 μg/ml, VES 20 μg/ml, δT3 5 μg/ml)
Description: MDA-MD-435 cells at 13.5×10^6/55 cm^2 cell culture dish (100 mm×20 mm; catalog # 430293, Corning Inc., Corning, N.Y.) were transiently transfected with in vitro transcribed TAP siRNA (Silencer siRNA Construction Kit, Ambion) using siPORT Lipid following company instructions (catalog # 4505, Ambion, Austin, Tex.). Cells were incubated overnight in culture media, then washed two times with non-supplemented regular MEM media. Next, the cells were incubated overnight in the presence of siRNA/siPORT Lipid [[…]/16 μl or 16 μl siPORT lipid only (as control)] in 5 ml of serum free media (OPTI-MEMI, catalog # 31985–070, Gibco). SiRNA/siPORT Lipid complex was generated by two steps: 1) 16 μl of siPORT lipid was incubated with 60 μl of OPTI-MEMI media for 30 minutes at room temperature; and 2) 60 μl of siPORT Lipid in OPTI-MEMI was then incubated for 20 minutes with 500 μl of diluted TAP siRNA [or 500 μl media as control (5 μl of 10 μl TAP siRNA in 500 μl of OPTI-MEMI media)]. The transfected cells were then split into 12 wells at 1.5×10^5 cells/well for apoptosis and 55 cm^2 dish at 3.5×10^6 cells/dish for Western immunoblot analyses.
The cells in 55 cm^2 dishes were incubated for 8 hours with culture media followed by treatment with 20 μg/ml of α-TEA in 2% serum treatment media for 15 hours. Cells were collected and fractionated, and the lysates were analyzed for TAP protein levels by Western immunoblotting (FIG. 13A). The cells plated in 12-well plates were incubated overnight in culture media followed by treatment with 20 μg/ml of α-TEA, 20 μg/ml of VES, and 5 μg/ml of RRR-δ-tocotrienol (dt3) and cultured for 2 days. Apoptosis was evaluated by DAPI staining (FIG. 13B).
For example, cells transiently transfected with TAP siRNA for 6 days and then treated with α-TEA, VES, or δT3 were inhibited from induction of apoptosis by approximately 60% in comparison to control cells cultured with the three compounds for two days.

[2] = tested on: MDA-MB-435 cells; assay: PARP cleavage and c-Jun phosphorylation in MDA-MB-435 cells transfected with antisense or sense oligomers to TAP; type: cell-based, human
Description: Antisense oligomers to TAP (both TAP-38 and TAP-46), showing that the induction of apoptosis with vitamin E succinate or compound #1 [2,5,7,8-tetramethyl-(2R-(4R,8R,12-trimethyltridecycl) chroman-6-yloxy) acetic acid] to involve tocopherol associated protein.

[3] = tested on: MDA-MB-435 human breast cancer cells; assay: Apoptosis of MDA-MB-435 cells transiently transfected with TAP-38 or TAP-46 cDNA and treated with compound; type: cell-based; settings: 20 micrograms/ml compound
Description: Transient transfection of MDA-MB-435 human breast cancer cells with either TAP-38 or TAP-46 enhanced the ability of tocopherol compound #1 [2,5,7,8-tetramethyl-(2R-(4R,8R,12-trimethyltridecycl) chroman-6-yloxy) acetic acid] to induce apoptosis (FIG. 9).

[4] = tested on: MDA-MB-435 cells; assay: Apoptosis (nuclear condensation and fragmentation) of MDA-MB-435 cells transfected with antisense oligomers to TAP; type: cell-based, human; settings: antisense to N-terminal region of TAP (TAP-38 and TAP-46)
Description: Apoptosis was determined by examination of nuclear condensation and fragmentation.
Transient transfection of MDA-MB-435 cells with antisense oligomers to the N-terminal region of TAP (interferes with TAP-38 as well as TAP-46 transcription) blocked the ability of tocopherol compounds, vitamin E succinate and compound #1, to induce apoptosis, showing that TAP-38 and TAP-46 are involved in the ability of vitamin E compounds to inhibit tumor cell growth (FIG. 10).

[5] = tested on: tumor cells, normal cells, cells of epithelial or immune origin; settings: cited from earlier work

Row | SMILES | inhibition of induction of apoptosis by TAP siRNA in comparison to control cells [1] | cleavage of poly ADP-ribose polymerase (PARP) in compound-treated cells with antisense vs sense oligomers to TAP [2] | phosphorylation of c-Jun in compound-treated cells with antisense vs sense oligomers to TAP [2] | ability to induce apoptosis in cells transfected with antisense oligomers to TAP, vs sense oligomers [4] | further results
1 | Cc1c(C)c2c(c(C)c1OCC(=O)O)CC[C@@](C)(CCC[C@H](C)CCC[C@H](C)CCCC(C)C)O2 [α-TEA] | approximately 60% |  |  |  | 
2 | Cc1c(C)c2c(c(C)c1OCC(=O)O)CC[C@@](C)(CCC[C@H](C)CCC[C@H](C)CCCC(C)C)O2 [compound #1, 2,5,7,8-tetramethyl-(2R-(4R,8R,12-trimethyltridecycl)chroman-6-yloxy) acetic acid] |  | blocked the cleavage | inhibited the phosphorylation | blocked | ability to induce apoptosis in cells transfected with either TAP-38 or TAP-46, vs vector control [3]: enhanced
3 | Cc1c(C)c2c(c(C)c1OC(=O)CCC(=O)O)CC[C@@](C)(CCC[C@H](C)CCC[C@H](C)CCCC(C)C)O2 [VES, RRR-α-tocopheryl succinate] | approximately 60% | blocked the cleavage | inhibited the phosphorylation | blocked | apoptotic inducing effects on normal cells ([5]; normal cells): no apoptotic inducing effects on normal cells; apoptosis of tumor cells ([5]; tumor cells): induces tumor cells to undergo apoptosis
4 | Cc1c(C)c2c(c(C)c1O)CC[C@@](C)(CCC[C@H](C)CCC[C@H](C)CCCC(C)C)O2 [RRR-α-tocopherol] |  |  |  |  | antiproliferative and proapoptotic activity ([5]; cells of epithelial or immune origin): neither antiproliferative nor proapoptotic biological activity
5 | CC(C)=CCC/C(C)=C/CC/C(C)=C/CC[C@]1(C)CCc2cc(O)cc(C)c2O1 [δT3, RRR-δ-tocotrienol] | approximately 60% |  |  |  | 
